According to ChEMBL document CHEMBL2007661, “Compounds: GSK PKIS; Assays: UNC Frye lab” (2012):
Where “and” joins values, the source holds several entries; their conditions need not be identical. Identical values can stand only once.

What was measured:
Settings in all cases: at 1 µM
[1] = molecular target: T1, Inhibitor of nuclear factor kappa-B kinase subunit beta (Homo sapiens) (UniProt O14920)
T1 sequence (whole entry): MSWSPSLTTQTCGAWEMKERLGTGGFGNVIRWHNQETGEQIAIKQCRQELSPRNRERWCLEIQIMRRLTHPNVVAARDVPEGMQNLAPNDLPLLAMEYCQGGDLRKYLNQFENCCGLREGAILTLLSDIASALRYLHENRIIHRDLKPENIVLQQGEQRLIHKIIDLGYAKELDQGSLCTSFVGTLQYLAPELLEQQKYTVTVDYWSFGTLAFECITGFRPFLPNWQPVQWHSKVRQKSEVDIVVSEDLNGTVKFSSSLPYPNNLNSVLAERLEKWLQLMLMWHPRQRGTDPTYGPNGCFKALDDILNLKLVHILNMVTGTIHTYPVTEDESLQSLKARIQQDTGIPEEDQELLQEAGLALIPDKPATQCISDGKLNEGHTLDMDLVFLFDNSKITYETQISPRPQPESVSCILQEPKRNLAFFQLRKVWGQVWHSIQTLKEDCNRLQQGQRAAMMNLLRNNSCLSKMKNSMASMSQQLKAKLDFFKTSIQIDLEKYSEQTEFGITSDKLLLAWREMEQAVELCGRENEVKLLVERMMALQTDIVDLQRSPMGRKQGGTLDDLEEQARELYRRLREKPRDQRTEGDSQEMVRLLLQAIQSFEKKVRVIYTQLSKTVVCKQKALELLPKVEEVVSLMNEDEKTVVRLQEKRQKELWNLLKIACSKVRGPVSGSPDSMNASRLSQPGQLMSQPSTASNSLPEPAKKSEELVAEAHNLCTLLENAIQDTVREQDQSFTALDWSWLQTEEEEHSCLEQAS

[2] = molecular target: T2, Inhibitor of nuclear factor kappa-B kinase subunit epsilon (Homo sapiens) (UniProt Q14164)
T2 sequence (whole entry): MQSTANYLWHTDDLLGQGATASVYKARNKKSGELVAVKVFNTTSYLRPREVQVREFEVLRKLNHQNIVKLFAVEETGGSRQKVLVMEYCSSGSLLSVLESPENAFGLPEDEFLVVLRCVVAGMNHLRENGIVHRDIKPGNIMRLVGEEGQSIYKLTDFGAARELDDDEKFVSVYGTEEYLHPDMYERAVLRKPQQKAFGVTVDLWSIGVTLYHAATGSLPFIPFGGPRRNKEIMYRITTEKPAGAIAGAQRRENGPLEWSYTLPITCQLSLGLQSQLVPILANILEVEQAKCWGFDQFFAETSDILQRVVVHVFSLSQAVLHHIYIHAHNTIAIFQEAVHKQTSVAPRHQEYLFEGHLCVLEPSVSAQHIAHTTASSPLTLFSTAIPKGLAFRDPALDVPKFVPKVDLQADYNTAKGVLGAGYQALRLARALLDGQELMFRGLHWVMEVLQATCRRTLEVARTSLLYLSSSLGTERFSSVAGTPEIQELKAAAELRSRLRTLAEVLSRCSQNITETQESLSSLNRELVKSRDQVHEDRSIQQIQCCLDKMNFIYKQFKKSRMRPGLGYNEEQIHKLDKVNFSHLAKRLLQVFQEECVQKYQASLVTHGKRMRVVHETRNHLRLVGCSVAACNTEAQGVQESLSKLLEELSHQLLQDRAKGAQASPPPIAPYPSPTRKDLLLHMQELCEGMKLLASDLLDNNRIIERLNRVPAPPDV

[3] = molecular target: T3, Inhibitor of nuclear factor kappa-B kinase subunit alpha (Homo sapiens) (UniProt O15111)
T3 sequence (whole entry): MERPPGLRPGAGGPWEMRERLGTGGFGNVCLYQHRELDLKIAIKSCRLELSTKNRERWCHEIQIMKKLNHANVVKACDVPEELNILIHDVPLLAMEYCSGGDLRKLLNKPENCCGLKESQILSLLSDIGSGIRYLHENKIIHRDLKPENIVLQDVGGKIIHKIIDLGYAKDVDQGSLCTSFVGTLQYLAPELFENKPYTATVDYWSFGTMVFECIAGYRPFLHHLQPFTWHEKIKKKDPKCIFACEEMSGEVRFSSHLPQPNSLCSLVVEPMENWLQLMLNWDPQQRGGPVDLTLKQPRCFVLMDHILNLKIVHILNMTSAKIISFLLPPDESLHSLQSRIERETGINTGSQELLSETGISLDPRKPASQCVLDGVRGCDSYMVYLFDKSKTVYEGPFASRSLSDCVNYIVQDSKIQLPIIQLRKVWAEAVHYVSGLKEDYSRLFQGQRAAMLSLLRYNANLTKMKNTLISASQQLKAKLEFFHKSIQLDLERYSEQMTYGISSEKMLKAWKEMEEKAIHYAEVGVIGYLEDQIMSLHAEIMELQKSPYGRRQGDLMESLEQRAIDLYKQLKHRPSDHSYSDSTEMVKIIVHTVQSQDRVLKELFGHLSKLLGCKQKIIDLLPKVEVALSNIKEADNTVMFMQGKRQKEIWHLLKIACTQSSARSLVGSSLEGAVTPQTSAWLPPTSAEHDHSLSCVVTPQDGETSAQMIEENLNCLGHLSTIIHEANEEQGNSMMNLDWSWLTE

[4] = molecular target: T4, Serine/threonine-protein kinase TBK1 (Homo sapiens) (UniProt Q9UHD2)
T4 sequence (whole entry): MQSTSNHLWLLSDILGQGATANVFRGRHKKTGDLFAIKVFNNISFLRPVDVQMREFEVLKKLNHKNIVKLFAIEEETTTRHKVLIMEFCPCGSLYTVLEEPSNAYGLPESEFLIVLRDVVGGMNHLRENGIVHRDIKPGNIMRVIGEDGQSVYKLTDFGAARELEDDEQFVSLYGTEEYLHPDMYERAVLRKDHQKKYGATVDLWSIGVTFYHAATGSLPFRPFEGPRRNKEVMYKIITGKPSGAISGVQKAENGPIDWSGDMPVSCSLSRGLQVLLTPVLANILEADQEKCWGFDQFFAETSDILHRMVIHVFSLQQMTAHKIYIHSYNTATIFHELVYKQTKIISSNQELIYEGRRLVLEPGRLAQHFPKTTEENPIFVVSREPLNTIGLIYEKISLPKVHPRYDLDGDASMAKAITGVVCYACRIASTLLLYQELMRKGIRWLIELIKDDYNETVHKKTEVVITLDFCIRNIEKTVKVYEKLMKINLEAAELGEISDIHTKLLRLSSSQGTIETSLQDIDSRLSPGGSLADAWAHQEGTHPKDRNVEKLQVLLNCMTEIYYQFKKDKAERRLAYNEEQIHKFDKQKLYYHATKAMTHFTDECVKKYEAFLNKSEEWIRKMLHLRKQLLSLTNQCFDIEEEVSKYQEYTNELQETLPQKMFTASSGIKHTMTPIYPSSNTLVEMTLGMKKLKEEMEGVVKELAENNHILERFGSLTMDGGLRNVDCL

SMILES	inhibition [1]	inhibition [2]	inhibition [3]	inhibition [4]
Cc1ccc2c(c1)/C(=N/Nc1ccc(S(N)(=O)=O)cc1)C(=O)N2	4% and 10%	-1% and 1%	9% and -3%	-2% and 3%
Cc1ccc(C(=O)NC(C)C)cc1-c1ccc(C(=O)NCC2CC2)cc1	-1% and 3%	0% and -2%	0% and -2%	-1% and -2%
NC(=O)c1sc(-n2cnc3ccccc32)cc1OCc1ccccc1Br	1% and 0%	2% and -1%	0% and -1%	0% and 3%
COc1ccc(-c2nn3ncccc3c2-c2ccnc(Nc3cccc(C(F)(F)F)c3)n2)cc1	-1% and -3%	-1% and 0%	2%	-2% and 0%
CN1CCC(n2cnc(-c3ccc(F)cc3)c2-c2ccnc(NCCO)n2)CC1	-3% and -4%	-3%	0% and 1%	-6% and -9%
c1ccc(-c2n[nH]cc2-c2ccnc(-c3ccc(OCCn4ccnc4)cc3)c2)nc1	-2% and -1%	-2% and 0%	0% and -1%	-4% and -3%
COc1cc2c(cc1Nc1nc(Nc3ccsc3C(N)=O)c3cc[nH]c3n1)N(C(=O)CN(C)C)CCC2(C)C	-5% and -1%	39% and 44%	1% and 2%	57% and 54%
CCOc1ccc2c(-c3ccnc(Nc4cc(OC)cc(C(F)(F)F)c4)n3)cnn2n1	-1%	32% and 31%	4% and -1%	51% and 43%
COc1ccc2ncn(-c3cc(O[C@H](C)c4ccccc4Cl)c(C(N)=O)s3)c2c1	6% and 3%	-2%	1% and -8%	0% and -4%
Nc1ncc(-c2cccc(S(N)(=O)=O)c2)c2scc(-c3ccc(F)c(Cl)c3)c12	-1% and 0%	1% and 2%	-2%	0%
COC(=O)Nc1nc2cc(Oc3ccc(NC(=O)Nc4cccc(Br)c4)cc3)ccc2[nH]1	-3% and -1%	-3% and 0%	2% and 0%	0% and 2%
N#Cc1cccc(Nc2ncc(-c3ccccc3)o2)c1	-2% and -3%	1% and -3%	1% and -1%	4%
Fc1cccc(COc2ccc(Nc3ncnc4sc(-c5ccco5)cc34)cc2Cl)c1	10% and 6%	0% and 2%	14% and 0%	41% and 42%

Results, then the molecule that gave them:

inhibition [1]	inhibition [2]	inhibition [3]	inhibition [4]	SMILES
-5% and -8%	26% and 22%	1% and 2%	14% and 13%	CN1CCN(C(=O)c2ccc(NC(=O)Nc3ccc(N(C)c4ccnc(Nc5ccc(CS(C)(=O)=O)cc5)n4)cc3)cc2)CC1
0% and -1%	1% and -1%	-1% and 0%	-3% and -1%	CS(=O)(=O)CCNCc1ccc(-c2ccc3ncnc(Nc4ccc(OCc5cccc(C(F)(F)F)c5)cc4)c3c2)o1
-2% and 0%	-1% and -2%	11% and -1%	-4% and 3%	Fc1ccc(-c2nc3n(c2-c2ccncc2)CCS3)cc1
3% and 4%	1% and 3%	-5% and -4%	4% and 3%	COc1ccc(-c2ccncc2)cc1C(N)=O
-2% and -3%	0% and 1%	4% and 10%	0% and -2%	Nc1nccc(-c2c(-c3ccc(F)cc3)ncn2C2CCC(O)CC2)n1 (stereo unspecified)
0% and -4%	6% and 4%	3%	16% and 10%	COc1cc(N2CCN(C(C)C)CC2)ccc1Nc1nc(Nc2ccc(F)cc2C(N)=O)c2cc[nH]c2n1
1%	6% and 8%	0% and 1%	54% and 57%	COc1cc2ncn(-c3cc(O[C@@H](C)c4ccccc4Cl)c(C(N)=O)s3)c2cc1OC
-7% and -4%	-1% and -2%	0% and 1%	3% and 1%	COc1cc2ncnc(Nc3ccc(C)c(O)c3)c2cc1OC
-3% and -6%	8% and 6%	22%	1% and 4%	CCn1c(-c2nonc2N)nc2c(C#CCN)ncc(OCCCN)c21
-5% and -3%	-3% and -2%	2% and 4%	3% and 2%	CNC(=O)c1sc(-n2cnc3cc(OC)c(OC)cc32)cc1OCc1ccccc1C(F)(F)F
-6% and -5%	39% and 40%	13% and 12%	6% and 7%	CCn1c(-c2nonc2N)nc2c(C#CC(C)(C)O)nc(OC[C@@H](N)c3ccccc3)cc21
-1%	0% and -1%	2% and 3%	-1% and -2%	NC(=O)Cc1ccccc1Oc1nccc(-c2c(-c3ccc(F)cc3)ncn2C2CCNCC2)n1
2% and -2%	1% and 4%	-3% and -2%	3% and 1%	CS(=O)(=O)CCNCc1ccc(-c2ccc3ncnc(Nc4ccc(OCc5cccc(F)c5)c(C(F)(F)F)c4)c3c2)o1
-4% and 0%	59%	1% and 2%	75% and 71%	COc1cc(Nc2ncc3c(C)nc(-c4cccc(Oc5ccccc5)c4)n3n2)cc(OC)c1OC
-2% and 0%	7% and 1%	-1% and 17%	6% and 3%	CNC(=O)c1cccc(C#Cc2cncnc2Nc2ccc(OCc3cccc(F)c3)c(Cl)c2)c1
5% and -2%	0%	-1%	-1% and 0%	Clc1ccc(CNc2nccc(-c3cnn4ncccc34)n2)cc1
